Laboratory results reported in patent publication US20090036448A1, “PYRIMIDINE DERIVATIVES AND METHODS OF TREATMENT RELATED TO THE USE THEREOF” (TAISHO PHARMECUTICAL CO., LTD., priority 2004, published 2009).

molecular target: MCH receptor (Homo sapiens, UniProt Q99705); test: Receptor binding assay with Radiolabelled MCH Ligand; parameters: expressed in transfected cells; host or cells: 293 cells (human kidney, ATCC), transient transfection; crude membranes; details: class by percent of control at 10^-7 M or IC50
Summary of the method: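 This was a filtration radioligand displacement assay: compounds, first tested at 1 and 0.1 μM and then over a range, inhibited binding of a labelled MCH ligand to transfected 293-cell membranes at room temperature for 60–120 min. Specific binding excluded a cold-MCH nonspecific signal. Ki was derived from IC50 via Cheng-Prusoff, using an independently measured KD.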

Sequence of MCH receptor (Q99705 whole entry): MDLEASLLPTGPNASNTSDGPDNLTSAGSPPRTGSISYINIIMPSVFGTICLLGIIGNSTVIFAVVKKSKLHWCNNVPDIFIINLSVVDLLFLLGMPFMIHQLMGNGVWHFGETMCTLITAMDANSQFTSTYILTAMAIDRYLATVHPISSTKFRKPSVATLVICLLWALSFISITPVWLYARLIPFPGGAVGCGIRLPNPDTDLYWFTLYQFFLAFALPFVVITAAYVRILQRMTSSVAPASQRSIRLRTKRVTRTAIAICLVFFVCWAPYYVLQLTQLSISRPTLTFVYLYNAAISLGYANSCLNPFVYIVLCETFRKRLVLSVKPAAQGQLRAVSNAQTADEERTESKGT

| SMILES | class |
| --- | --- |
| CC(=O)c1ccc(S(=O)(=O)N[C@H]2CC[C@@H](Nc3cc(N(C)C)nc(C)n3)CC2)cc1 [compound 484] | 3 (Class 3: The value of percent of control at 10^−7 M was more than 60% or the value of IC50 was more than 200 nM.) |
| Cc1nc(N[C@H]2CC[C@@H](NS(=O)(=O)c3ccc(C)c(Cl)c3)CC2)cc(N(C)C)n1 [compound 485] | 3 (Class 3: The value of percent of control at 10^−7 M was more than 60% or the value of IC50 was more than 200 nM.) |
| Cc1cc(C)c(S(=O)(=O)N[C@H]2CC[C@@H](Nc3cc(N(C)C)nc(C)n3)CC2)c(C)c1 [compound 486] | 3 (Class 3: The value of percent of control at 10^−7 M was more than 60% or the value of IC50 was more than 200 nM.) |
| CCCc1ccc(S(=O)(=O)N[C@H]2CC[C@@H](Nc3cc(N(C)C)nc(C)n3)CC2)cc1 [compound 487] | 3 (Class 3: The value of percent of control at 10^−7 M was more than 60% or the value of IC50 was more than 200 nM.) |
| CCC(C)(C)c1ccc(S(=O)(=O)N[C@H]2CC[C@@H](Nc3cc(N(C)C)nc(C)n3)CC2)cc1 [compound 488] | 3 (Class 3: The value of percent of control at 10^−7 M was more than 60% or the value of IC50 was more than 200 nM.) |
| Cc1nc(N[C@H]2CC[C@@H](NS(=O)(=O)c3ccc(-c4ccccc4)cc3)CC2)cc(N(C)C)n1 [compound 489] | 3 (Class 3: The value of percent of control at 10^−7 M was more than 60% or the value of IC50 was more than 200 nM.) |
| Cc1nc(N[C@H]2CC[C@@H](NS(=O)(=O)c3cccc4c(N(C)C)cccc34)CC2)cc(N(C)C)n1 [compound 490] | 3 (Class 3: The value of percent of control at 10^−7 M was more than 60% or the value of IC50 was more than 200 nM.) |
| Cc1nc(N[C@H]2CC[C@@H](NS(=O)(=O)c3ccccc3OC(F)(F)F)CC2)cc(N(C)C)n1 [compound 491] | 3 (Class 3: The value of percent of control at 10^−7 M was more than 60% or the value of IC50 was more than 200 nM.) |
| Cc1nc(N[C@H]2CC[C@@H](NS(=O)(=O)c3cccc(OC(F)(F)F)c3)CC2)cc(N(C)C)n1 [compound 492] | 3 (Class 3: The value of percent of control at 10^−7 M was more than 60% or the value of IC50 was more than 200 nM.) |
| COc1cccc(S(=O)(=O)N[C@H]2CC[C@@H](Nc3cc(N(C)C)nc(C)n3)CC2)c1 [compound 493] | 3 (Class 3: The value of percent of control at 10^−7 M was more than 60% or the value of IC50 was more than 200 nM.) |
| CCCCOc1ccc(S(=O)(=O)N[C@H]2CC[C@@H](Nc3cc(N(C)C)nc(C)n3)CC2)cc1 [compound 494] | 3 (Class 3: The value of percent of control at 10^−7 M was more than 60% or the value of IC50 was more than 200 nM.) |
| Cc1nc(N[C@H]2CC[C@@H](NS(=O)(=O)c3cc(Cl)c(Oc4ccc([N+](=O)[O-])cc4Cl)c(Cl)c3)CC2)cc(N(C)C)n1 [compound 495] | 3 (Class 3: The value of percent of control at 10^−7 M was more than 60% or the value of IC50 was more than 200 nM.) |
| Cc1nc(N[C@H]2CC[C@@H](NS(=O)(=O)c3ccc(Oc4ccccc4)cc3)CC2)cc(N(C)C)n1 [compound 496] | 3 (Class 3: The value of percent of control at 10^−7 M was more than 60% or the value of IC50 was more than 200 nM.) |
| Cc1nc(N[C@H]2CC[C@@H](NS(=O)(=O)c3ccc(Oc4ncc(C(F)(F)F)cc4Cl)cc3)CC2)cc(N(C)C)n1 [compound 497] | 3 (Class 3: The value of percent of control at 10^−7 M was more than 60% or the value of IC50 was more than 200 nM.) |
| Cc1nc(N[C@H]2CC[C@@H](NS(=O)(=O)c3ccc(S(C)(=O)=O)cc3)CC2)cc(N(C)C)n1 [compound 498] | 3 (Class 3: The value of percent of control at 10^−7 M was more than 60% or the value of IC50 was more than 200 nM.) |
| Cc1nc(N[C@H]2CC[C@@H](NS(=O)(=O)c3cccc(C#N)c3)CC2)cc(N(C)C)n1 [compound 499] | 3 (Class 3: The value of percent of control at 10^−7 M was more than 60% or the value of IC50 was more than 200 nM.) |
| Cc1nc(N[C@H]2CC[C@@H](NS(=O)(=O)c3cccc(Br)c3)CC2)cc(N(C)C)n1 [compound 500] | 3 (Class 3: The value of percent of control at 10^−7 M was more than 60% or the value of IC50 was more than 200 nM.) |
| Cc1nc(N[C@H]2CC[C@@H](NS(=O)(=O)c3ccc(Br)cc3OC(F)(F)F)CC2)cc(N(C)C)n1 [compound 501] | 3 (Class 3: The value of percent of control at 10^−7 M was more than 60% or the value of IC50 was more than 200 nM.) |
| Cc1nc(N[C@H]2CC[C@@H](NS(=O)(=O)c3ccc(Cl)c(Cl)c3)CC2)cc(N(C)C)n1 [compound 502] | 3 (Class 3: The value of percent of control at 10^−7 M was more than 60% or the value of IC50 was more than 200 nM.) |
| Cc1nc(N[C@H]2CC[C@@H](NS(=O)(=O)c3cccc(F)c3)CC2)cc(N(C)C)n1 [compound 503] | 3 (Class 3: The value of percent of control at 10^−7 M was more than 60% or the value of IC50 was more than 200 nM.) |

| SMILES | class |
| --- | --- |
| Cc1nc(N[C@H]2CC[C@@H](NS(=O)(=O)c3cccc([N+](=O)[O-])c3)CC2)cc(N(C)C)n1 [compound 504] | 3 (Class 3: The value of percent of control at 10^−7 M was more than 60% or the value of IC50 was more than 200 nM.) |
| Cc1nc(N[C@H]2CC[C@@H](NS(=O)(=O)c3cccc4ccccc34)CC2)cc(N(C)C)n1 [compound 505] | 3 (Class 3: The value of percent of control at 10^−7 M was more than 60% or the value of IC50 was more than 200 nM.) |
| CCOC(=O)c1c(S(=O)(=O)N[C@H]2CC[C@@H](Nc3cc(N(C)C)nc(C)n3)CC2)c(-c2ccccc2)n(-c2ccccc2)c1C [compound 506] | 3 (Class 3: The value of percent of control at 10^−7 M was more than 60% or the value of IC50 was more than 200 nM.) |
| COC(=O)c1ccc(S(=O)(=O)N[C@H]2CC[C@@H](Nc3cc(N(C)C)nc(C)n3)CC2)n1C [compound 507] | 3 (Class 3: The value of percent of control at 10^−7 M was more than 60% or the value of IC50 was more than 200 nM.) |
| COC(=O)c1cc(S(=O)(=O)N[C@H]2CC[C@@H](Nc3cc(N(C)C)nc(C)n3)CC2)oc1C [compound 508] | 3 (Class 3: The value of percent of control at 10^−7 M was more than 60% or the value of IC50 was more than 200 nM.) |
| Cc1nc(N[C@H]2CC[C@@H](NS(=O)(=O)c3ccc4c(c3)CN(C(=O)C(F)(F)F)CC4)CC2)cc(N(C)C)n1 [compound 509] | 3 (Class 3: The value of percent of control at 10^−7 M was more than 60% or the value of IC50 was more than 200 nM.) |
| Cc1nc(N[C@H]2CC[C@@H](NS(=O)(=O)c3ccc(Cc4ncc(C(F)(F)F)cc4Cl)s3)CC2)cc(N(C)C)n1 [compound 510] | 3 (Class 3: The value of percent of control at 10^−7 M was more than 60% or the value of IC50 was more than 200 nM.) |
| Cc1nc(N[C@H]2CC[C@@H](NS(=O)(=O)c3sc4ccc(Cl)cc4c3C)CC2)cc(N(C)C)n1 [compound 511] | 3 (Class 3: The value of percent of control at 10^−7 M was more than 60% or the value of IC50 was more than 200 nM.) |
| Cc1nc(N[C@H]2CC[C@@H](NS(=O)(=O)c3c(C)noc3C)CC2)cc(N(C)C)n1 [compound 512] | 3 (Class 3: The value of percent of control at 10^−7 M was more than 60% or the value of IC50 was more than 200 nM.) |
| Cc1nc(N[C@H]2CC[C@@H](NS(=O)(=O)c3c(C)nn(C)c3C)CC2)cc(N(C)C)n1 [compound 513] | 3 (Class 3: The value of percent of control at 10^−7 M was more than 60% or the value of IC50 was more than 200 nM.) |
| CCOC(=O)c1c(S(=O)(=O)N[C@H]2CC[C@@H](Nc3cc(N(C)C)nc(C)n3)CC2)c(-c2ccc(Cl)cc2)n(-c2ccccc2)c1C [compound 514] | 3 (Class 3: The value of percent of control at 10^−7 M was more than 60% or the value of IC50 was more than 200 nM.) |
| Cc1nc(N[C@H]2CC[C@@H](NS(=O)(=O)c3ccc(-c4cc(C(F)(F)F)nn4C)s3)CC2)cc(N(C)C)n1 [compound 515] | 3 (Class 3: The value of percent of control at 10^−7 M was more than 60% or the value of IC50 was more than 200 nM.) |
| Cc1nc(N[C@H]2CC[C@@H](NS(=O)(=O)c3cccn3-c3ncc(C(F)(F)F)cc3Cl)CC2)cc(N(C)C)n1 [compound 516] | 3 (Class 3: The value of percent of control at 10^−7 M was more than 60% or the value of IC50 was more than 200 nM.) |
| Cc1nc(N[C@H]2CC[C@@H](NS(=O)(=O)c3ccc(-c4ccon4)s3)CC2)cc(N(C)C)n1 [compound 517] | 3 (Class 3: The value of percent of control at 10^−7 M was more than 60% or the value of IC50 was more than 200 nM.) |
| COC(=O)c1csc(S(=O)(=O)N[C@H]2CC[C@@H](Nc3cc(N(C)C)nc(C)n3)CC2)c1OC [compound 518] | 3 (Class 3: The value of percent of control at 10^−7 M was more than 60% or the value of IC50 was more than 200 nM.) |
| Cc1nc(N[C@H]2CC[C@@H](NS(=O)(=O)c3cc(S(=O)(=O)c4ccccc4)cs3)CC2)cc(N(C)C)n1 [compound 519] | 3 (Class 3: The value of percent of control at 10^−7 M was more than 60% or the value of IC50 was more than 200 nM.) |
| Cc1nc(N[C@H]2CC[C@@H](NS(=O)(=O)c3ccc(Br)s3)CC2)cc(N(C)C)n1 [compound 520] | 3 (Class 3: The value of percent of control at 10^−7 M was more than 60% or the value of IC50 was more than 200 nM.) |
| Cc1nc(N[C@H]2CC[C@@H](NS(=O)(=O)c3ccc(Cl)c4nonc34)CC2)cc(N(C)C)n1 [compound 521] | 3 (Class 3: The value of percent of control at 10^−7 M was more than 60% or the value of IC50 was more than 200 nM.) |
| Cc1nc(N[C@H]2CC[C@@H](NS(=O)(=O)c3cccc4cccnc34)CC2)cc(N(C)C)n1 [compound 522] | 3 (Class 3: The value of percent of control at 10^−7 M was more than 60% or the value of IC50 was more than 200 nM.) |
